These compounds were tested against T1, hGPR40 (Homo sapiens, UniProt O14842) (assay: Calcium flux assay to detect GPR40 activation). Conditions: CHO-K cells stably expressing hGPR40; Fluo-4 NW; read for 4 min at 5 s intervals.
T1 construct: expressed in transfected cells
Type: cell-based
Description: Biological Activity Calium Flux Assay to Detect GPR40 Activation: CHO-K cells stably expressing hGPR40 were selected in a media containing Neomycin/G418. The cells were plated at a concentration of 20,000 cells per well in black 96-well clear bottom tissue culture treated plates. The cells were cultured for 24 h at 37° C. in a humidified 5% CO2 air environment to allow for protein expression. The next day, after removal of media from wells, Fluo-4 NW (Invitrogen) is added at 100 ul/well and the cells were incubated for 30 min at 37° C. and for a further 30 min at RT. All test compounds were diluted to appropriate concentrations in HEPES buffer. Compounds were added to the cells and the wells were read in the BioTEK synergy reader and readings were taken for 4 min with an interval of 5 s.

T1 sequence (O14842 whole entry): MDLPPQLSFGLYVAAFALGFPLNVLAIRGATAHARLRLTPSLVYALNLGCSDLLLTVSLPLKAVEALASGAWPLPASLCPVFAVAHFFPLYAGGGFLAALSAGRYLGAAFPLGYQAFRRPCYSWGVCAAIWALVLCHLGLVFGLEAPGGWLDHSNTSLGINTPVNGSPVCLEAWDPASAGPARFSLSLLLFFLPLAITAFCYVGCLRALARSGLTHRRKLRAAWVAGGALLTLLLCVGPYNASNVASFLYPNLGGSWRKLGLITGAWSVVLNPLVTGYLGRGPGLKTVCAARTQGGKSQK

Q: `CC(C)O/N=C(/c1ccccc1)c1cccc(CNc2ccc(CCC(=O)O)cc2)c1` [Compound 10, 3-{4-[(3-{(E,Z)-Phenyl[(propan-2-yloxy)imino]methyl}benzyl)amino]phenyl}propanoic acid] was tested. Which EC50 did it give?
A: > 100 nM

Q: With `CN(C)CCO/N=C(/c1ccccc1)c1cccc(COc2ccc(CCC(=O)O)cc2)c1` [Compound 11, 3-[4-({3-[(E,Z)-{[2-(Dimethylamino)ethoxy]imino}(phenyl)methyl]benzyl}oxy)phenyl]propanoic acid] as the compound, how does the EC50 read?
A: > 100 nM

Q: `CO/N=C(/c1ccccc1)c1cccc(COc2ccc(C(C#N)CC(=O)O)cc2)c1` (stereo not drawn) [Compound 12, 3-Cyano-3-[4-({3-[(E,Z)-(methoxyimino)(phenyl)methyl]benzyl}oxy)phenyl]propanoic acid] was tested. Which EC50 did it give?
A: > 100 nM

Q: `CO/N=C(\COc1ccc(CNc2ccc([C@@H]3C[C@H]3C(=O)O)cc2)cc1)c1ccccc1C` [Compound 15, (1R,2R)-2-{4-[(4-{[(2Z)-2-(Methoxyimino)-2-(2-methylphenyl)ethyl]oxy}benzyl)amino]phenyl}cyclopropanecarboxylic acid] was tested. Which EC50 did it give?
A: 10 to 100 nM

Q: With `CO/N=C(\COc1ccc(COc2ccc(C(C#N)CC(=O)O)cc2)cc1)c1ccccc1` (stereo not drawn) [Compound 16, 3-Cyano-3-{4-[(4-{[(2Z)-2-(methoxyimino)-2-phenylethyl]oxy}benzyl)oxy]phenyl}propanoic acid] as the compound, how does the EC50 read?
A: 10 to 100 nM

Q: Which EC50 does the source give for `CO/N=C(\COc1ccc(COc2ccc(C(CC(=O)O)c3ccon3)cc2)cc1)c1ccccc1` (stereo not drawn) [Compound 17, 3-{4-[(4-{[(2Z)-2-(methoxyimino)-2-phenylethyl]oxy}benzyl)oxy]phenyl}-3-(1,2-oxazol-3-yl)propanoic acid] here?
A: 10 to 100 nM

Q: `CO/N=C(\COc1ccc(COc2ccc(C(C#N)CC(=O)O)cc2)cc1)c1ccccc1` (stereo not drawn) [Compound 18, Sodium 3-cyano-3-{4-[(4-{[(2Z)-2-(methoxyimino)-2-phenylethyl]oxy}benzyl)oxy]phenyl}propanoate] was tested. Which EC50 did it give?
A: < 10 nM

Q: `CO/N=C(\c1ccccc1)c1cccc(COc2ccc(CC(=O)O)cc2)c1` [Compound 19, [4-({3-[(E,Z)-(Methoxyimino)(phenyl)methyl]benzyl}oxy)phenyl]acetic acid] was tested. Which EC50 did it give?
A: > 100 nM

Q: With `CO/N=C(\COc1ccc(COc2ccc(CCC(=O)O)cc2)cn1)c1ccccc1` [Compound 20, 3-{4-[(6-{[(2Z)-2-(Methoxyimino)-2-phenylethyl]oxy}pyridin-3-yl)methoxy]phenyl}propanoic acid] as the compound, how does the EC50 read?
A: > 100 nM

Q: Which EC50 does the source give for `CO/N=C(\COc1ccc(COc2ccc(C(C#N)CC(=O)O)cc2)cc1OC)c1ccccc1` (stereo not drawn) [Compound 26, 3-Cyano-3-{4-[(3-methoxy-4-{[(2Z)-2-(methoxyimino)-2-phenylethyl]oxy}benzyl)oxy]phenyl}propanoic acid] here?
A: 10 to 100 nM

Q: `CO/N=C(\COc1ccc(COc2ccc(C(CC(=O)O)c3ccon3)cc2)cc1)c1ccccc1` (stereo not drawn) [Compound 29, Sodium 3-{4-[(4-{[(2Z)-2-(methoxyimino)-2-phenylethyl]oxy}benzyl)oxy]phenyl}-3-(1,2-oxazol-3-yl)propanoate] was tested. Which EC50 did it give?
A: < 10 nM

Q: With `CO/N=C(/COc1ccc(COc2ccc(COCC(=O)O)cc2)cc1)c1ccccc1` [Compound 30, ({4-[(4-{[(2E,2Z)-2-(Methoxyimino)-2-phenylethyl]oxy}benzyl)oxy]benzyl}oxy)acetic acid] as the compound, how does the EC50 read?
A: > 100 nM

Q: How did the EC50 turn out when `CO/N=C(\COc1ccc(COc2ccc(C(C#N)CC(=O)O)cc2)cc1)c1ccccc1` (stereo not drawn) [Compound 31, Potassium 3-cyano-3-{4-[(4-{[(2Z)-2-(methoxyimino)-2-phenylethyl]oxy}benzyl)oxy]phenyl}propanoate] was run?
A: < 10 nM

Q: `CO/N=C(/COc1ccc(COc2ccc(-c3c(C(=O)O)noc3C)cc2)cc1)c1ccccc1` [Compound 32, 4-{4-[(4-{[(2E,2Z)-2-(Methoxyimino)-2-phenylethyl]oxy}benzyl)oxy]phenyl}-5-methyl-1,2-oxazole-3-carboxylic acid] was tested. Which EC50 did it give?
A: > 100 nM

Q: `CO/N=C(\COc1ccc(COc2ccc(C(C#N)CC(=O)O)cc2)cc1)c1ccc(F)cc1` (stereo not drawn) [Compound 34, 3-Cyano-3-{4-[(4-{[(2Z)-2-(4-fluorophenyl)-2-(methoxyimino)ethyl]oxy}benzyl)oxy]phenyl}propanoic acid] was tested. Which EC50 did it give?
A: < 10 nM

Q: `CO/N=C(\COc1ccc(COc2ccc(C(C#N)CC(=O)O)cc2)cc1)c1cccc(F)c1` (stereo not drawn) [Compound 35, 3-Cyano-3-{4-[(4-{[(2Z)-2-(3-fluorophenyl)-2-(methoxyimino)ethyl]oxy}benzyl)oxy]phenyl}propanoic acid] was tested. Which EC50 did it give?
A: 10 to 100 nM

Q: `CO/N=C(\COc1ccc(COc2ccc(CCC(=O)O)c(F)c2)cc1)c1ccccc1` [Compound 36, 3-{2-Fluoro-4-[(4-{[(2Z)-2-(methoxyimino)-2-phenylethyl]oxy}benzyl)oxy]phenyl}propanoic acid] was tested. Which EC50 did it give?
A: < 10 nM

Q: For `CO/N=C(\COc1ccc(COc2ccc(CCC(=O)O)c(OC)c2)cc1)c1ccccc1` [Compound 37, 3-{2-Methoxy-4-[(4-{[(2Z)-2-(methoxyimino)-2-phenylethyl]oxy}benzyl)oxy]phenyl}propanoic acid], which EC50 is on record?
A: > 100 nM

Q: With `CO/N=C(\COc1ccc(COc2ccc(CCC(=O)O)c(C)c2)cc1)c1ccccc1` [Compound 38] as the compound, how does the EC50 read?
A: > 100 nM

Q: `CO/N=C(\COc1ccc(COc2ccc(CCC(=O)O)c(F)c2)cc1)c1ccc(C#N)cc1` [Compound 39] was tested. Which EC50 did it give?
A: < 10 nM

Q: Which EC50 does the source give for `CO/N=C(\COc1ccc(COc2ccc(CCC(=O)O)c(F)c2)cc1)c1ccc(OC)cc1` [Compound 40, 3-{2-Fluoro-4-[(4-{[(2Z)-2-(methoxyimino)-2-(4-methoxyphenyl)ethyl]oxy}benzyl)oxy]phenyl}propanoic acid] here?
A: < 10 nM

Q: `CO/N=C(\COc1ccc(COc2ccc(CCC(=O)O)c(F)c2)cc1OC)c1ccccc1` [Compound 41, 3-{2-Fluoro-4-[(3-methoxy-4-{[(2E,2Z)-2-(methoxyimino)-2-phenylethyl]oxy}benzyl)oxy]phenyl}propanoic acid] was tested. Which EC50 did it give?
A: 10 to 100 nM

Q: Which EC50 does the source give for `CO/N=C(\COc1ccc(COc2ccc(CCC(=O)O)c(C#N)c2)cc1)c1ccccc1` [Compound 42, 3-{2-Cyano-4-[(4-{[(2E,2Z)-2-(methoxyimino)-2-phenylethyl]oxy}benzyl)oxy]phenyl}propanoic acid] here?
A: > 100 nM

Q: With `CO/N=C(\COc1ccc(COc2ccc(CCC(=O)O)c(OC)c2)cc1)c1ccc(C#N)cc1` [Compound 43, 3-{4-[(4-{[(2Z)-2-(4-Cyanophenyl)-2-(methoxyimino)ethyl]oxy}benzyl)oxy]-2-methoxyphenyl}propanoic acid] as the compound, how does the EC50 read?
A: > 100 nM

Q: `CO/N=C(\COc1ccc(COc2ccc(CCC(=O)O)c(CC#N)c2)cc1)c1ccccc1` [Compound 44, 3-{2-(Cyanomethyl)-4-[(4-{[(2Z)-2-(methoxyimino)-2-phenylethyl]oxy}benzyl)oxy]phenyl}propanoic acid] was tested. Which EC50 did it give?
A: > 100 nM

Q: With `CO/N=C(\COc1ccc(COc2ccc(C3CC3C(=O)O)cc2)cc1)c1ccc(C#N)cc1` (stereo not drawn) [Compound 45, 2-{4-[(4-{[(2Z)-2-(4-Cyanophenyl)-2-(methoxyimino)ethyl]oxy}benzyl)oxy]phenyl}cyclopropanecarboxylic acid] as the compound, how does the EC50 read?
A: 10 to 100 nM

Q: For `CO/N=C(\COc1ccc(COc2ccc(C3CC3C(=O)O)cc2)cc1)c1ccc(OC)cc1` (stereo not drawn) [Compound 46, 2-{4-[(4-{[(2Z)-2-(Methoxyimino)-2-(4-methoxyphenyl)ethyl]oxy}benzyl)oxy]phenyl}cyclopropanecarboxylic acid], which EC50 is on record?
A: 10 to 100 nM
